Measurements published in PMC4764553, “Human cytomegalovirus IE1 protein alters the higher-order chromatin structure by targeting the acidic patch of the nucleosome” (eLife, 2016).
Residues, ends and D or L forms follow the SMILES beside them.

What was measured:
[1] = molecular target: T1, NCP (nucleosome core particle) (Homo sapiens, UniProt P04908+P06899+P62805+P68431); experiment: biochemical; type: binding
T1 construct: made in house; host or cells: E. coli BL21(DE3)-RIL

[2] = molecular target: T1, NCP (nucleosome core particle); experiment: ITC measurement of full-length IE1, IE1-CTD and IE1ΔCTD binding to NCP at 150 mM NaCl
[3] = molecular target: T2, human NCP carrying the E56R mutation of histone H2A (Homo sapiens, UniProt P04908+P06899+P62805+P68431, E57R); experiment: ITC measurement of peptide binding to NCP reconstituted with H2A E56R mutant; details: 20°C, 10 mM Tris-HCl pH 7.5, 50 mM NaCl, Figure 3
T2 construct: made in house; host or cells: E. coli BL21(DE3)-RIL

[4] = system: 30-nm chromatin fiber; experiment: AUC sedimentation velocity of 30-nm chromatin fiber (with H1); type: biochemical, human; details: 12 x 177 bp 601 array with H1, […], peptide/protein to NCP 5:1 molar ratio, 10 mM HEPES pH 8.0, 0.1 mM EDTA, listed as LANA-CTD
Protocol: (§1) Recombinant human core histones were prepared as described above. Linker histone H1.4 and DNA templates of 12 tandem 177 bp repeats of the 601 sequence were cloned and purified, and reconstituted into chromatin as previously described ([Chen et al., 2013]; [Dyer et al., 2003]; [Li et al., 2010]; [Song et al., 2014]).
(§2) The reconstituted chromatin samples were subject to AUC analysis in a buffer containing 10 mM HEPES, pH 8.0 and 0.1 mM EDTA.

[5] = system: 10-nm nucleosomal array; experiment: AUC sedimentation velocity of 10-nm nucleosomal array (without H1); type: biochemical, human; details: 12 x 177 bp 601 array without H1, […], peptide to NCP 5:1 molar ratio, 10 mM HEPES pH 8.0, 0.1 mM EDTA, array alone Save 36 ± 1 S, listed as LANA-CTD
Protocol: as §1, §2

[6] = system: nucleosomal arrays; details: folding of nucleosomal arrays induced by magnesium ions; ref Chodaparambil et al., 2007; cited from earlier work
From the text: For the purpose of dissecting the functions of individual NCP binding partners, one would ideally like to be able to isolate histone mutants that affect the binding of one protein but not others. The most promising such sites appear to lie in zone II and III, as they are less frequently occupied among known NCP binding proteins (Figure 2). […] Nevertheless, the identification of the E56R variant of histone H2A as an IE1-noninteracting mutant has already se ...

CSCC[C@H](NC(=O)[C@@H]1CCCN1C(=O)[C@H](C)NC(=O)[C@@H](NC(=O)[C@H](CO)NC(=O)[C@H](CCCCN)NC(=O)CNC(=O)CN)[C@@H](C)O)C(=O)N[C@H](C(=O)N[C@H](C(=O)N[C@@H](CCCNC(=N)N)C(=O)N[C@@H](CO)C(=O)N[C@@H](CCCCN)C(=O)N[C@@H](C)C(=O)N[C@@H](CC(=O)O)C(=O)N[C@@H](CCC(N)=O)C(=O)O)[C@@H](C)O)C(C)C [H481A] (H-GGKSTAPMVTRSKADQ-OH)
Kd [1]: 43.4 ± 5.36 µM

CSCC[C@H](NC(=O)[C@@H]1CCCN1C(=O)[C@H](Cc1c[nH]cn1)NC(=O)[C@@H](NC(=O)[C@H](CO)NC(=O)[C@H](CCCCN)NC(=O)CNC(=O)CN)[C@@H](C)O)C(=O)N[C@H](C(=O)N[C@H](C(=O)N[C@@H](CCCNC(=N)N)C(=O)N[C@@H](CO)C(=O)N[C@@H](CCCCN)C(=O)N[C@@H](C)C(=O)N[C@@H](CC(=O)O)C(=O)N[C@@H](CCC(N)=O)C(=O)O)[C@@H](C)O)C(C)C [IE1-CTD]
Kd [1]: 0.42 ± 0.04 µM
Kd [2]: 2.25 ± 0.1 µM

CSCC[C@H](NC(=O)CNC(=O)[C@@H]1CCCN1)C(=O)N[C@@H](CCCNC(=N)N)C(=O)N[C@@H](CC(C)C)C(=O)N[C@@H](CCCNC(=N)N)C(=O)N[C@@H](CO)C(=O)NCC(=O)N[C@@H](CCCNC(=N)N)C(=O)N[C@@H](CO)C(=O)N[C@H](C(=O)NCC(=O)N[C@@H](C)C(=O)N1CCC[C@H]1C(=O)O)[C@@H](C)O [LANA] (H-PGMRLRSGRSTGAP-OH; N-terminus and C-terminus assumed)
N (ITC) ([1]; ITC, 20°C, 10 mM Tris-HCl pH 7.5, 50 mM NaCl, human NCP, Figure 3): 1.97
N (ITC), H2A E56R NCP [3]: 2.03
effect on folding of 30-nm chromatin fiber (in words) [4]: does not affect the folding of the 30-nm chromatin fiber
effect on 10-nm nucleosomal array (in words) [5]: slightly affected
compaction of nucleosomal arrays (in words) [6]: promotes the compaction of nucleosomal arrays

CSCC[C@H](NC(=O)[C@@H]1CCCN1C(=O)[C@H](Cc1c[nH]cn1)NC(=O)[C@@H](NC(=O)[C@H](CO)NC(=O)[C@H](CCCCN)NC(=O)CNC(=O)CN)[C@@H](C)O)C(=O)N[C@H](C(=O)N[C@H](C(=O)N[C@@H](CCCNC(=N)N)C(=O)N[C@@H](CO)C(=O)N[C@@H](CCCCN)C(=O)N[C@@H](C)C(=O)N[C@@H](CC(=O)O)C(=O)N[C@@H](CCC(N)=O)C(=O)O)C(C)C)C(C)C [T485V] (H-GGKSTHPMVVRSKADQ-OH)
Kd [1]: 11.3 ± 0.73 µM

CSCC[C@H](NC(=O)[C@@H]1CCCN1C(=O)[C@@H](N)Cc1c[nH]cn1)C(=O)N[C@H](C(=O)N[C@H](C(=O)N[C@@H](CCCNC(=N)N)C(=O)N[C@@H](CO)C(=O)N[C@@H](CCCCN)C(=O)N[C@@H](C)C(=O)N[C@@H](CC(=O)O)C(=O)N[C@@H](CCC(N)=O)C(=O)O)[C@@H](C)O)C(C)C [Δ476–480] (H-HPMVTRSKADQ-OH)
Kd [1]: 12.1 ± 0.45 µM
